# Assay results from patent US20130202649A1, “ACTIVATION OF INNATE IMMUNITY FOR NUCLEAR REPROGRAMMING OF SOMATIC CELLS” (The Board of Trustees of the Leland Stanford Junior …, priority 2012, published 2013).
# How the values were obtained:
# [1] = system: innate immune response genes (TLR3, NF-κB, IFN-β, Stat1, Stat2); test: Expression of innate immunity related genes; type: cell-based, human
# Description: To gain more insight into the mechanisms by which a retroviral particle could accelerate nuclear reprogramming, we substituted a non-integrating mutant of pMX-GFP by introducing a frameshift mutation near the poi coding region of the retrovirus. This mutant can enter the cell, direct synthesis of intact virus particles that retain reverse transcriptase activity, but cannot integrate newly synthesized viral DNA into the host genome. […] Accordingly, integration of foreign DNA into the host genome is not required for the difference in gene expression between the CPPs and their corresponding viral vectors. Viral infection activates innate immunity, by virtue of interaction with Toll-like receptors (TLRs). The TLRs recognize pathogen-associated molecular patterns (PAMPs) associated with viral protein, lipopolysaccharides, DNA or RNA. We hypothesized that activation of innate immunity through TLRs may be involved in the difference in gene expression. Indeed, we observed that our retroviral vectors (but not the CPPs) activated inflammatory (innate immune response) genes, including the toll-like receptor 3 (TLR3), NF-κB, IFN-β, Stat1 and Stat2 (FIG. 11).
# Treatments At 60-70% confluency, BJ fibroblast cells were serum-starved using 1% serum to induce G1 cell cycle arrest. […]
# [2] = system: MEFs expressing a dox-inducible polycistronic transgene construct encoding the four reprogramming factors; test: Doxycycline-inducible iPSC generation from secondary MEFs; type: cell-based, mouse; details: Dox-treated MEFs
# Method: To further test the hypothesis that TLR3 activation was required for efficient reprogramming, we isolated MEFs from murine embryos expressing a doxycycline (Dox)-inducible polycistronic transgene construct encoding the four reprogramming factors. To generate iPSCs, 10^5 MEFs/per well in 6-well plates were treated with Dox. In some wells, poly I:C was also added for the initial 6 days of the reprogramming process. In other wells, cells were infected with pMX-GFP on the first day of Dox treatment. Poly I:C or pMX-GFP each accelerated the expression of Oct4 and Sox2 (FIG. 6A). […] Similarly, infection with pMX-GFP seemed to accelerate colony formation, as a number of small colonies were observed by day 7 in the viral particle infected group (FIG. 16). By day 14, typical mES-like colonies appeared, many of which had activated SSEA-1. At this time point, the number of typical SSEA-1^+ colonies were increased by 7-8 fold in wells exposed to viral particles or poly I:C (FIG. 6B). Colony number increased further by day 21-28 (FIGS. 6B and 6C). […]
# Doxycycline-induced iPSCs: As previously described (Wernig et al., 2008), MEFs from chimeric embryos at E13.5 were isolated. […] The generation of iPSC colonies was monitored daily and scored at days 14 and 21. […]
# [3] = system: heterochromatin protein 1 (HP1); test: HP1 distribution (confocal microscopy) and expression (Western); type: cell-based, human
# Method: In addition, the changes in methylation status of the Oct4 and Sox2 promoters that were accelerated by TLR3 activation were also associated with an accelerated redistribution of heterochromatin protein 1 (HP1; FIGS. 19A and 19B). HP1 that is bound to methylated H3K9 recruits the methylase Suv39h, leading to further methylation of H3K9, so as to consolidate a repressed state. The redistribution of HP1 induced by poly I:C is consistent with genome-wide epigenetic alterations induced by TLR3 activation. Histone acetylation favors an open chromatin state, maintained by proteins containing histone acetyltransferase (HAT) domains, such as p300 and CBP. NF-κB is a transcriptional effector of TLR3 activation, and interacts with CBP/p300 to positively regulate gene expression. […] This effect was mediated by TLR3, as shRNA knockdown of TLR3 or its adaptor protein TRIF1 reduced the effect of poly I:C on NF-κB activation (FIG. 20).
# Heterochromatin protein-1 (HP1) is associated with the closed conformation of chromatin. […] The fact that the current work implicated TRIF signaling likely aligns with the fact that the retrovirus RNA provides adequate TLR3 signaling to trigger NF-κB, IRF3 and IFN. While TLR3 mimicked signaling from the retrovirus vector, other TLR agonists as well as agonists for NOD-like receptors, RIG-1-like receptors, cytosolic DNA sensors and C-type lectin receptors, drive a similar inflammatory response converging on NF-κB, IRF-3 and IFNβ.
# Western Blotting Proteins were extracted from BJ fibroblasts by solubilizing the cells in RIPA buffer containing 1× protease inhibitor cocktail. 25 μg of total protein was loaded and resolved on SDSpolyacrylamide gels, transferred to PVDF membranes and probed with the following primary antibodies: anti-HP1α and anti-HDAC (Cell Signaling), and β-actin (Sigma, A5441). Immunoblots were developed with enhanced chemiluminescence reagents (Amersham).
substance,measurement,setting,value
Polyinosinicpolycytidylic acid [Poly I:C],expression of NF-κB and TLR3,[1]; BJ fibroblasts,sustained increase
same,expression of inflammatory (innate immune response) genes,[1]; human fibroblasts,induces the expression of genes involved in innate immunity
same,changes in the morphology of the MEFs,[2]; 3 days,accelerated changes in the morphology
same,expression of Oct4 and Sox2,[2]; poly I:C initial 6 days or pMX-GFP on first day,accelerated
same,distribution of HP1,[3]; co-administered with CPP-SOX2,marked changes in its distribution
same,expression of HP-1α (immunoblot),[3]; day 2 to day 6,unaffected
same,distribution of HP1,[3]; in the absence of the CPP,no observable redistribution
